# Experimental data taken from patent US20230218608A1, “NEW STRATEGY FOR TREATING PANCREATIC CANCER” (INSERM (INSTITUT NATIONAL DE LA SANTÉ ET DE LA RECHERCHE …, priority 2020, published 2023).
# Experiments:
# PDAC cells = experiment: Dose-response viability experiments (Crystal violet viability assay); format: cell-based, human; details: 72 h; for Relative cell viability, mean of the treated cells: compared to non-treated cells
# Experimental: We used 21 PDAC primary cells obtained from Patient-Derived Xenografts (PDX) from the PaCaOmics cohort, in which patients were included under the Paoli-Calmettes Institute clinical trial number 2011-A01439-32. Consent forms of informed patients were collected and registered in a central database. PDAC cells were obtained and maintained in serum-free ductal media (SFDM) as described, and incubated at 37° C. in a 5% CO2 incubator. Cell lines were monthly tested for Mycoplasma contamination and found to be negative.
# We tested the sensitivity of PDAC cells to three different drugs targeting the FAO pathway: Etomoxir, Perhexiline, and Trimetazidine (all provided by Sigma-Aldrich, Saint-Quentin Fallavier, France), and to the standard chemotherapy Gemcitabine (Gemzar, Eli Lilly & Co).
# Cells were seeded in 96-well plates (5,000 cells per well) and 24 h later, the medium was supplemented with increasing concentrations of the drugs in triplicates. For the combination treatment, we used Perhexiline at 5 μM with increasing doses of Gemcitabine. Cell viability was determined 72 h later by Crystal violet viability assay, which is independent from cell metabolism. Briefly, cells were fixed in Glutaraldehyde 1%, washed twice with PBS, stained with crystal violet 0.1% for 10 min, and then washed three times with PBS. Crystals were solubilized in SDS 1%, and absorbance was measured at 600 nm using an Epoch-Biotek spectrophotometer.
# four PDAC xenografts = experiment: Subcutaneous PDAC xenografts, tumor growth (four models overall); format: in vivo, mice; details: Perhexiline 5 mg/kg IP every other day, one month
# Experimental: (§1) We assessed the FAO inhibition impact in vivo using the drug Perhexiline in combination with Gemcitabine. We performed subcutaneous xenografts in immunodeficient mice using four different primary PDAC cells. Recipient mice were 6-week-old female Swiss nude mice Crl:Nu(lco)-Foxn1nu purchased from Charles River, France. To obtain the xenografts, subcutaneous tumors from initial mouse donors were removed and finely minced with a scalpel. Then, 150 mg of tumor's pieces were mixed with 50 μl of Matrigel and implanted with a trocar (10 Gauge) in the subcutaneous space of anesthetized mice. Tumor volume was measured twice per week using a digital caliper and using the formula V=lenght×(width)/2. When tumor volume reached 200 mm^3, mice were randomly assigned in a treatment scheme:
# (§2) a) Gemcitabine: 120 mg/kg twice a week
# (§3) b) Perhexiline: 5 mg/kg every other day
# (§4) c) Combination treatment: Gemcitabine plus Perhexiline with the same described indications
# (§5) d) Vehicle: PBS in the case of Gemcitabine treatment controls and 3% DMSO in PBS for combination treatment controls.
# (§6) Mice were treated by intraperitoneal injection during one month, and mice in which tumor volume reached 1.5 cm^3 during this period were ethically sacrificed and tumors removed.
# four PDAC cells = experiment: AnnexinV/PI apoptosis assay (flow cytometry); format: cell-based, human; details: Perhexiline 7 μM, 72 h
# Experimental: Cells were seeded in 6-well plates in duplicates (150 000 cells per well) and the day after, the corresponding treatment was administered. We treated four PDAC cells with 7 μM of Perhexiline for 72 h (FIG. 5A), and in combination with 1 μM of Gemcitabine for 24 h for the PDAC084T cells. After the treatment period, cells were detached with Accutase, and resuspended in Annexin V-binding buffer (Biolegend). Cell death was determined using the Annexin V and Propidium Iodide (PI) staining (Biolegend), for apoptosis and necrosis, respectively. Ten thousand events per sample were acquired in a MAC SQuant-VYB (Miltenyi Biotec) and data analysis was done with the FlowJo software.
# PDAC084T cells = experiment: Real-time metabolic analysis (Seahorse XF Cell Mito Stress Test); format: cell-based, human; details: Perhexiline 10 μM, 6 h
# Experimental: We tested the impact of […], and the combination treatment (6 hours) on the mitochondrial respiration in PDAC084T cells. Measurements were performed using the Seahorse Bioscience XFe24 Extracellular Flux Analyzer (Agilent). Sixteen hours before the assay, cells at exponential growth were seeded into Seahorse 24-well plates and cultured at 37° C. with 5% CO2. Six hours before the assay, the media was replaced with vehicle DMSO (0.01%), Gemcitabine (1 μM), Perhexiline (10 μM), or the combination of the two drugs. After 6 h treatment, the media was replaced with OXPHOS assay medium (DMEM without phenol red [Sigma-Aldrich reference D5030], 143 mM NaCl, 2 mM glutamine, 1 mM sodium pyruvate and 10 mM glucose, pH 7.4) and the plate was pre-incubated for 1 h at 37° C. in a non-CO2 incubator. OCR was measured under basal conditions, and then after sequential injections of Oligomycin at 1 μM, carbonyl cyanide-p-trifluoromethox-[…]-hydrazon (FCCP, the concentration was optimized for each cell line), and 0.5 μM of Rotenone plus Antimycin A. Oligomycin is a respiratory Complex V inhibitor that allows to calculate ATP production by mitochondria, and FCCP is an uncoupling agent allowing the determination of the maximal respiration and the spare capacity. […]
# PDAC012T xenograft = experiment: Subcutaneous PDAC xenograft, tumor growth; format: in vivo, mice; details: one month IP; Gemcitabine 120 mg/kg twice a week; intermediate responder
# Experimental: as §1, §2, §3, §4, §5, §6
# PDAC032T xenograft = experiment: Subcutaneous PDAC xenograft, tumor growth; format: in vivo, mice; details: one month IP; Gemcitabine 120 mg/kg twice a week; low responder
# Experimental: as §1, §2, §3, §4, §5, §6
# PDAC084T xenograft = experiment: Subcutaneous PDAC xenograft, tumor growth; format: in vivo, mice; details: one month IP; Gemcitabine 120 mg/kg twice a week, Perhexiline 5 mg/kg every other day; high responder
# Experimental: as §1, §2, §3, §4, §5, §6
structure (smiles),measurement,setting,value
C1CCC(C(CC2CCCCN2)C2CCCCC2)CC1 (stereo not shown) [Perhexiline],Cell viability,PDAC cells; Perhexiline 5 μM alone,no impacts cell viability
same,"Relative cell viability, mean of the treated cells",PDAC cells; Perhexiline 7 μM,0.72
same,Tumor growth compared with vehicle-injected mice,four PDAC xenografts,doesn't have any impact on tumor growth
same,Cell death (apoptosis induction),four PDAC cells,apoptotic inductor
same,Decrease of mitochondrial respiration (OCR),PDAC084T cells,about 50%
Nc1ccn([C@@H]2O[C@H](CO)[C@@H](O)C2(F)F)c(=O)n1 [Gemcitabine],Tumor growth,PDAC012T xenograft,arresting the tumor growth
same,Tumor growth,PDAC032T xenograft,induces tumor regression
same,Tumor growth,PDAC084T xenograft,arresting the tumor growth
CCOC(=O)[C@@]1(CCCCCCOc2ccc(Cl)cc2)CO1 [Etomoxir],"Relative cell viability, mean of the treated cells",PDAC cells; Etomoxir 62.5 μM,0.75
COc1ccc(CN2CCNCC2)c(OC)c1OC [Trimetazidine],Relative cell viability,"PDAC cells; Trimetazidine 62.5 μM, compared with non-treated cells",no effect in any cell
